Source: publication PMC7829778, “Optimization of 1,4-Naphthoquinone Hit Compound: A Computational, Phenotypic, and In Vivo Screening against Trypanosoma cruzi” (Molecules, 2021)
Where two headings read alike, the source gives them in different places.

Experiments:
[1] = tested on: T. cruzi trypomastigotes Dm28c-Luc; test: Trypanocidal activity against trypomastigotes, Dm28c-Luc clone (luciferase); assay type: cell-based, Trypanosoma cruzi; details: Trypanosoma cruzi, 24 h, mean ± SD of three experiments; for IC50: read-out: Trypanocidal Effect Trypomastigotes Dm28c-Luc IC50; for IC90: read-out: Trypanocidal Effect Trypomastigotes Dm28c-Luc IC90
Description: (§1) T. cruzi Dm28c-Luc clone, genetically modified to express firefly luciferase, and Y strain were used in the drug screening assay. Vero cells were infected with T. cruzi, Dm28c-Luc or Y strain, in a 10:1 parasites/host cell ratio and maintained at 37 °C in humidified atmosphere of 5% CO2. Trypomastigotes were harvested from the infected culture supernatant on the 4th day post-infection (dpi) followed by quantification of the number of parasites/mL in Neubauer chamber.
(§2) Screening of the compounds was performed against trypomastigotes and intracellular amastigote forms. Trypomastigotes (1 × 10^6 parasites/well), Dm28c-Luc clone and Y strain, were incubated for 24 h at 37 °C with the 1,4 naphthoquinone derivatives and Bz (0.41–100 μM) and their viability determined by the activity of the luciferase enzyme, after addition of luciferin substrate (300 μg/mL), or CellTiter Glo. The luminescent signal was detected on the FlexStation 3 reader.

[2] = tested on: T. cruzi trypomastigotes Y strain; test: Trypanocidal activity against trypomastigotes, Y strain (CellTiter Glo); assay type: cell-based; details: Trypanosoma cruzi, 24 h
Description: as §1, §2

[3] = Cytotoxicity in vitro assay (CellTiter Glo, ATP level); assay type: cell-based; details: African green monkey, Vero cells
Description: The cultures were maintained at 37 °C in humidified atmosphere of 5% CO2.
To evaluate the toxic effects of the 1,4-naphthoquinone derivatives on mammalian cells, Vero cells were seeded at a density of 1.5 × 10^4 cells/well in 96-well white culture plates. Twenty-four hours later, the cell cultures were incubated for 72 h at 37 °C with 1,4-naphthoquinone derivatives (series 1(a–i) and 2(a–j)) and Bz (500–1.9 µM) diluted in RPMI medium supplemented with 10% FBS. After incubation, the cell viability, measured by ATP level, was assessed by adding 20 µL/well of the CellTiter Glo (Promega Corporation, Madison, WI, EUA) solution. The luminescent signal was read on the FlexStation 3 reader (Molecular Devices, Sunnyvale, CA, USA). […] All treatments and controls were performed at low concentration (≤1%) of dimethyl sulfoxide (DMSO). At least three independent assays were performed in duplicate.

[4] = tested on: intracellular amastigotes of T. cruzi (Dm28c-Luc clone); test: Luminescent screening against intracellular amastigotes in infected Vero cells; assay type: cell-based, Trypanosoma cruzi; details: infected Vero cells treated for 72 h, mean ± SD of three experiments
Description: as §1
The effect of the compounds against intracellular amastigotes was screened in 72 h T. cruzi-infected Vero cells. Briefly, Vero cells seeded (1.5 × 10^4 cells/well) on 96-well white plate infected with trypomastigotes (Dm28c-Luc) at a 10:1 multiplicity of parasites/cell. After 24 h of infection, the cultures were washed with PBS and then, treated for 72 h at 37 °C with naphthoquinone derivatives and Bz (0.41–100 µM). After treatment, luciferin (300 µg/mL) was added to the culture and the viability of the parasites was assessed by reading the luminescent signal using the FlexStation 3 reader. Controls were also performed in no-toxic concentrations of DMSO (≤1%).

[5] = trypomastigotes, mean ± SD of three experiments, read-out: Trypanocidal Effect Trypomastigotes Y Strain IC50
[6] = trypomastigotes, mean ± SD of three experiments, read-out: Trypanocidal Effect Trypomastigotes Y Strain IC90
[7] = Table 1, mean ± SD, read-out: Vero Cells Toxicity CC50
[8] = read-out: Trypanocidal Effect Trypomastigotes Y Strain IC50, trypomastigotes, 24 h, mean ± SD of three experiments
[9] = read-out: Trypanocidal Effect Trypomastigotes Y Strain IC90, trypomastigotes, 24 h, mean ± SD of three experiments

SMILES	IC50 [1] [µM]	IC90 [1] [µM]	IC50 [2, 5] [µM]	IC90 [2, 6] [µM]	CC50 at 72 h [3, 7] [µM]	CC50 at 72 h ([3]; Table 2, read-out: CC50 Vero) [µM]	IC50 ([4]; Trypanosoma cruzi, Vero, 72 h) [µM]	IC90 ([4]; Trypanosoma cruzi) [µM]	IC50 [4] [µM]	melting point [°C]	IC50 [2, 8] [µM]	IC90 [2, 9] [µM]
O=C1C(O)=C(C(Sc2ccc(Cl)cc2)c2ccc(Cl)cc2)C(=O)c2ccccc21 (centres unmarked) [Compound 1a, 2-((4-chlorophenyl)((4-chlorophenyl)thio)methyl)-3-hydroxynaphthalene-1,4-dione]	8.9 ± 0.6	25.1 ± 1.6	3.1 ± 0.6	5.8 ± 0.9	43.6 ± 2.3	43.6 ± 2.3	≤ 6.9	12.1 ± 1.3	6.2 ± 0.9	135 to 136	–	–
O=C1C(O)=C(C(Sc2ccc(Cl)cc2)c2cccc(Cl)c2)C(=O)c2ccccc21 (centres unmarked) [Compound 1b, 2-((3-chlorophenyl)((4-chlorophenyl)thio)methyl)-3-hydroxynaphthalene-1,4-dione]	9.8 ± 0.5	30.8 ± 2.9	3.6 ± 1.6	8.1 ± 1.3	42.1 ± 1.9	42.1 ± 1.9	≤ 6.9	12.7 ± 1.8	6.9 ± 1.5	–	–	–
O=C1C(O)=C(C(Sc2ccc(Cl)cc2)c2ccccc2Cl)C(=O)c2ccccc21 (centres unmarked) [Compound 1c, 2-((2-chlorophenyl)((4-chlorophenyl)thio)methyl)-3-hydroxynaphthalene-1,4-dione]	8.6 ± 1.4	29.6 ± 5.4	4.3 ± 3.2	7.3 ± 2.2	44.1 ± 2.3	44.1 ± 2.3	9.3 ± 0.8	23.1 ± 3.3	–	183 to 184	–	–
O=C1C(O)=C(C(Sc2ccc(Cl)cc2Cl)c2ccccc2)C(=O)c2ccccc21 (centres unmarked) [Compound 1d, 2-(((2,4-dichlorophenyl)thio)(phenyl)methyl)-3-hydroxynaphthalene-1,4-dione]	9.3 ± 1.1	23.3 ± 2.1	2.8 ± 0.6	5.8 ± 1.1	82.1 ± 5.1	82.1 ± 5.1	13.5 ± 2.1	31.1 ± 3.1	–	144 to 145	–	–
O=C1C(O)=C(C(Sc2ccc(Cl)cc2)c2cn(-c3cc(Cl)cc(Cl)c3)nn2)C(=O)c2ccccc21 (centres unmarked) [Compound 1e, 2-(((4-chlorophenyl)thio)(1-(3,5-dichlorophenyl)-1H-1,2,3-triazol-4-yl)methyl)-3-hydroxynaphthalene-1,4-dione]	~4.5	16.5 ± 2.8	4.7 ± 1.9	5.5 ± 0.9	34.1 ± 2.9	34.1 ± 7.5	9.1 ± 0.7	27.9 ± 3.9	–	142 to 143	~4.5	–
O=C1C(O)=C(C(Sc2ccc(Cl)cc2)c2ccccc2)C(=O)c2c(O)cccc21 (centres unmarked) [Compound 1f, 3-(((4-chlorophenyl)thio)(phenyl)methyl)-2,5-dihydroxynaphthalene-1,4-dione]	9.8 ± 0.7	28.1 ± 1.7	–	–	41.1 ± 2.1	41.1 ± 2.1	10.1 ± 1.4	29.1 ± 2.1	–	–	–	–
COc1ccc(C(Sc2ccc(Cl)cc2)C2=C(O)C(=O)c3ccccc3C2=O)c(OC)c1 (centres unmarked) [Compound 1h, 2-(((4-chlorophenyl)thio)(2,4-dimethoxyphenyl)methyl)-3-hydroxynaphthalene-1,4-dione]	15.4 ± 4.6	–	–	–	24.4 ± 2.6	24 to 34	12.1 ± 3.9	19.4 ± 3.6	–	–	22.9 ± 7.1	31.9 ± 6.1
COc1ccc(C(Sc2ccc(Cl)cc2)C2=C(O)C(=O)c3ccccc3C2=O)c(OC)c1OC (centres unmarked) [Compound 1i, 2-(((4-chlorophenyl)thio)(2,3,4-trimethoxyphenyl)methyl)-3-hydroxynaphthalene-1,4-dione]	21.5 ± 2.9	–	–	–	34.2 ± 3.4	24 to 34	15.9 ± 3.1	27.2 ± 3.4	–	–	30.1 ± 2.3	38.9 ± 4.3
COc1ccc(C(Sc2ccccc2)C2=C(O)C(=O)c3ccccc3C2=O)cc1 (centres unmarked) [Compound 2a, 2-Hydroxy-3-((4-methoxyphenyl)(phenylthio)methyl)naphthalene-1,4-dione]	27.4 ± 2.9	32.1 ± 1.6	31.2 ± 4.3	38.9 ± 5.3	45.1 ± 1.9	45.1 ± 1.9	≤ 6.9	25.3 ± 1.9	6.7 ± 1.6	–	–	–
COc1ccc(C(Sc2ccccc2C)C2=C(O)C(=O)c3ccccc3C2=O)cc1 (centres unmarked) [Compound 2b, 2-Hydroxy-3-((4-methoxyphenyl)(o-tolylthio)methyl) naphthalene-1,4-dione]	25.9 ± 2.2	31.8 ± 0.9	27.9 ± 4.1	37.9 ± 6.1	44.4 ± 3.4	44.4 ± 3.4	~12	27.4 ± 2.4	11.3 ± 1.1	54 to 55	–	–
COc1ccc(C(Sc2cccc(C)c2)C2=C(O)C(=O)c3ccccc3C2=O)cc1 (centres unmarked) [Compound 2c, 2-Hydroxy-3-((4-methoxyphenyl)(m-tolylthio)methyl)naphthalene-1,4-dione]	52.3 ± 6.4	84.6 ± 11.4	26.2 ± 4.8	32.8 ± 5.1	48.9 ± 4.7	48.9 ± 4.7	~12	30.9 ± 4.7	12.6 ± 2.4	–	–	–
COc1ccc(C(Sc2ccc(C)cc2)C2=C(O)C(=O)c3ccccc3C2=O)cc1 (centres unmarked) [Compound 2d, 2-Hydroxy-3-((4-methoxyphenyl)(p-tolylthio)methyl) naphthalene-1,4-dione]	24.3 ± 3.4	82.2 ± 7.7	31.1 ± 1.8	49.7 ± 7.1	142 ± 17.6	142 ± 17.6	11.9 ± 1.7	28.8 ± 4.6	–	–	–	–
COc1ccc(C(Sc2ccc(F)cc2)C2=C(O)C(=O)c3ccccc3C2=O)cc1 (centres unmarked) [Compound 2e, 2-(((4-fluorophenyl)thio)(4-methoxyphenyl)methyl)-3-hydroxynaphthalene-1,4-dione]	24.4 ± 4.4	31.4 ± 4.4	20.3 ± 4.1	32.3 ± 5.1	47.7 ± 3.2	47.7 ± 3.2	≤ 6.9	19.7 ± 3.2	6.8 ± 1.5	132 to 134	–	–
COc1ccc(C(Sc2ccc([N+](=O)[O-])cc2)C2=C(O)C(=O)c3ccccc3C2=O)cc1 (centres unmarked) [Compound 2f, 2-Hydroxy-3-((4-methoxyphenyl)((4-nitrophenyl)thio)methyl)naphthalene-1,4-dione]	6.5 ± 3.1	11.5 ± 3.1	12.5 ± 1.6	19.9 ± 3.6	40.6 ± 2.9	40.6 ± 2.9	≤ 6.9	76.6 ± 4.9	5.7 ± 1.4	–	–	–
CCCSC(C1=C(O)C(=O)c2ccccc2C1=O)c1ccc(OC)cc1 (centres unmarked) [Compound 2g, 2-Hydroxy-3-((4-methoxyphenyl)(propylthio)methyl)naphthalene-1,4-dione]	13.7 ± 4.1	28.7 ± 5.1	12.7 ± 3.9	23.7 ± 4.1	47.7 ± 5.2	47.7 ± 5.2	10.3 ± 2.4	37.7 ± 4.1	–	–	–	–
COc1ccc(SC(C2=C(O)C(=O)c3ccccc3C2=O)c2ccc(OC)cc2)cc1 (centres unmarked) [Compound 2i, 2-Hydroxy-3-((4-methoxyphenyl)((4-methoxyphenyl)thio)methyl)naphthalene-1,4-dione]	24.1 ± 2.7	44.9 ± 6.7	10.6 ± 0.4	31.6 ± 5.4	44.8 ± 3.3	44.8 ± 3.3	15.8 ± 3.2	34.8 ± 5.3	–	–	–	–
COc1ccc(C(Sc2ccc(SC)cc2)C2=C(O)C(=O)c3ccccc3C2=O)cc1 (centres unmarked) [Compound 2j, 2-hydroxy-3-((4-methoxyphenyl)((4-(methylthio)phenyl)thio)methyl)naphthalene-1,4-dione]	52.7 ± 12.6	> 100	89.6 ± 5.4	> 100	93.5 ± 6.6	93.5 ± 6.6	60.2 ± 9.8	> 100	–	–	–	–
